From patent US20080090903A1, “PHENYLALKYL CARBAMATE COMPOSITIONS” (priority 2006, published 2008)

Experiment: Forced degradation of the phenylalkyl carbamate as a function of pH (pH 9 carbonate buffer, LC-MS)
Format: physicochemical
Details: room temperature
Protocol: Under certain conditions of elevated temperature and relative humidity, such as, 25° C. and 40% RH, 25° C. and 60% RH, 25° C. and 80% RH, 45° C. and 20% RH, 45° C. and 40% RH, 45° C. and 60% RH, 45° C. and 80% RH, or 40° C. and75% RH and the like, an exposed compound or composition may be subject to degradation.
As shown in Scheme A, a sample of Compound A1, the carbamic acid (2R)-2-(2-chloro-phenyl)-2-hydroxy-ethyl ester compound of formula (Ib), was dissolved in a pH 9 carbonate buffer.
The sample was analyzed by LC-MS under reverse phase conditions using positive ion ESI and APCI detection.

SMILES: NC(=O)OC[C@H](O)c1ccccc1Cl [Compound A1, carbamic acid (2R)-2-(2-chloro-phenyl)-2-hydroxy-ethyl ester]
- Degradation in solution: degradation products had formed in appreciable amounts
